The results in this text go back to PubChem BioAssay (NCI).

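Step 1: Grow cells in 96-well plates. Step 2: Expose to compound for 48 hours at 5 concentrations. Step 3: Interpolate endpoints linearly; if unreached, use highest concentration. The concentration for full growth arrest is given as TGI.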

Assay in all cases: growth of human tumour cells (NCI), 48 h
For experiment [1], the system named is RXF 393 renal.
The subject of experiment [2] is K-562 leukemia.
In experiment [3] the test system is OVCAR-4 ovarian.
For experiment [4], the system named is U251 CNS.
The test system of experiment [5] is IGROV1 ovarian.
In experiment [6] the test system is SNB-75 CNS.
The subject of experiment [7] is CAKI-1 renal.
Experiment [8] relates to HL-60(TB) leukemia.
The subject of experiment [9] is NCI-H460 lung.
Experiment [10] concerns KM12 colon.
In experiment [11] the test system is HOP-62 NSCLC.
Experiment [12] concerns SK-MEL-28 melanoma.
Experiment [13] concerns OVCAR-3 ovarian.
Experiment [14] has as its system LOX IMVI melanoma.
Experiment [15] has as its system HT29 colon.

Regarding `CCc1ccccc1NC(=O)CC1NC(=O)CS1` (stereo unspecified), the TGI in [1], in experiment [2], in experiment [3], in experiment [4], in [5] and in experiment [6] was greater than 100 µM in each case. Moreover, the TGI in [7], in [8], in experiment [9], in [10], in experiment [11] and in experiment [12] was greater than 100 µM in each case. Besides, the TGI in [13] and in experiment [14] was greater than 100 µM throughout.

Take `Cc1ccc(NC(=O)/C(C#N)=C/c2ccccc2)c(C)c1`: the TGI in experiment [1], in experiment [2], in experiment [15], in experiment [3], in experiment [4] and in experiment [5] was greater than 100 µM in each case. For the same molecule, the TGI in experiment [6], in [7], in [8], in experiment [9], in [10] and in experiment [11] was greater than 100 µM each time. The TGI in experiment [12] and in [13] was greater than 100 µM in each case.

Turning to `O=c1ccc2ccccc2c2ccccc12`, the TGI in experiment [2] stood at 33.1 µM; in [15] it was 6.78 µM; in experiment [3] it was 20.4 µM; in [4], 4.93 µM; in experiment [5] it was 19 µM; in experiment [6], 10.8 µM. The TGI in experiment [7] is 8.55 µM; in experiment [8], 9.97 µM; in [9] it was 13.8 µM; in experiment [10], 5.76 µM; in experiment [11] it was 11.2 µM; in experiment [12] it was 16.8 µM. The TGI in experiment [13] came out at 11.5 µM; in [14] it was 3.99 µM.

Take `CC(C)N(C(=O)C12C3C4C1C1C2C3C41C(=O)N(C(C)C)C(C)C)C(C)C` (stereo unspecified): the TGI in experiment [2], in experiment [15], in [3], in [4], in experiment [5] and in [6] was greater than 50 µM in each case. Further, the TGI in [7], in [8], in experiment [9], in experiment [10], in experiment [11] and in [12] was greater than 50 µM each time. Also, the TGI in experiment [13] and in experiment [14] was greater than 50 µM each time.

For `CSc1ccc2c(cc1=O)C(NC(=O)c1ccc(C#N)cc1)CCc1cc(O)c(O)c(O)c1-2` (stereo unspecified), the TGI came out at 25.1 µM in experiment [2]; 75.3 µM in experiment [15]; 27.2 µM in experiment [3]; 45.3 µM in experiment [4]; 14.6 µM in experiment [6]; 51.9 µM in experiment [8]. For the same molecule, the TGI was 73.3 µM in experiment [9]; greater than 100 µM in [10]; greater than 100 µM in experiment [11]; greater than 100 µM in [12]; greater than 100 µM in [13].

As to `O=C(O)C12CC3CC(CC(F)(C3)C1)C2`, the TGI in experiment [1], in experiment [2], in [15], in experiment [4], in [5] and in [6] was greater than 100 µM in each case. Moreover, the TGI in [8], in [9], in experiment [10], in experiment [11], in experiment [12] and in experiment [13] was greater than 100 µM each time. This molecule also yielded a TGI in [14] greater than 100 µM.

Take `CN(C)CC(/C(Cc1ccccc1)=N\NC(=S)NN)c1ccccc1` (stereo unspecified): the TGI in [1], in experiment [2], in experiment [15], in [3], in experiment [4] and in [5] was greater than 100 µM each time. Moreover, the TGI in [6], in experiment [7], in experiment [8], in [9], in [10] and in experiment [11] was greater than 100 µM in each case. Besides, the TGI in experiment [12], in experiment [13] and in experiment [14] was greater than 100 µM each time.

In the case of `CN(C)C(F)=PC(F)(F)F` (stereo unspecified), the TGI in experiment [1], in [2], in experiment [15], in [3], in [4] and in experiment [5] was greater than 100 µM each time. In addition, the TGI in experiment [6], in experiment [7], in experiment [8], in experiment [9], in experiment [10] and in experiment [11] was greater than 100 µM each time. Moreover, the TGI in experiment [12] and in [14] was greater than 100 µM in each case.

Turning to `Nc1nc2ncn(CC(O)CO)c2c(=O)[nH]1` (stereo unspecified), the TGI in experiment [1], in experiment [2], in experiment [15], in experiment [3], in experiment [4] and in experiment [5] was greater than 100 µM throughout. Further, the TGI in experiment [6], in experiment [7], in experiment [8], in [9], in [10] and in experiment [11] was greater than 100 µM throughout. Further, the TGI in [12], in experiment [13] and in [14] was greater than 100 µM in each case.

Regarding `COc1cc(-c2cc(=O)c3ccccc3[nH]2)cc(OC)c1OC`, the TGI in experiment [1] was greater than 75 µM; in experiment [2], greater than 75 µM; in [15], greater than 75 µM; in experiment [4], greater than 75 µM; in [6], greater than 75 µM; in [8], greater than 7.5 µM. The TGI in experiment [9], in experiment [10], in experiment [11], in [12], in [13] and in experiment [14] was greater than 75 µM each time.

On to `O=c1ccn(/C=C/C(O)C(O)CO)c(=O)[nH]1` (stereo unspecified), for which the TGI in [2], in experiment [15], in [3], in [4], in experiment [5] and in experiment [6] was greater than 100 µM in each case. The TGI in experiment [7] is greater than 100 µM; in experiment [8], greater than 100 µM; in experiment [10], 40.9 µM; in experiment [11], greater than 100 µM; in [12], greater than 100 µM; in experiment [13], greater than 100 µM. Moreover, the TGI in experiment [14] was greater than 100 µM.

On to `CC(=O)Nc1ccc(S(=O)(=O)NN(C)S(=O)(=O)c2ccc(C)cc2)cc1`, for which the TGI in experiment [1], in experiment [2], in experiment [15], in [3], in experiment [5] and in experiment [7] was greater than 100 µM each time. The TGI in [8], in experiment [9], in experiment [10], in experiment [11], in [12] and in [13] was greater than 100 µM in each case.

For `N#CNC1=NC(N)C(c2nc3ccccc3[nH]2)=C(CCCC(=O)Nc2cccc([N+](=O)[O-])c2)N1` (stereo unspecified), the TGI in [1], in experiment [2], in [15], in [3], in experiment [5] and in [6] was greater than 100 µM in each case. The TGI in experiment [7], in experiment [8], in experiment [9], in [10], in experiment [11] and in experiment [12] was greater than 100 µM each time. Further, the TGI in experiment [13] and in [14] was greater than 100 µM in each case.

For `NC(CCCCNCc1ccccc1O)C(=O)O` (stereo unspecified), the TGI in experiment [2], in experiment [15], in experiment [3], in [4], in [5] and in [6] was greater than 100 µM in each case. The TGI in experiment [7], in experiment [8], in experiment [9], in experiment [10], in experiment [11] and in experiment [12] was greater than 100 µM throughout. Besides, the TGI in experiment [13] and in experiment [14] was greater than 100 µM throughout.

As to `Oc1cccnc1/C=N/OCc1ccccc1`, the TGI in [1] was 72.8 µM; in experiment [2], greater than 100 µM; in experiment [15], greater than 100 µM; in experiment [4], greater than 100 µM; in [5], greater than 100 µM; in experiment [6], greater than 100 µM. Besides, the TGI in experiment [7], in [8], in experiment [9], in experiment [10], in experiment [11] and in experiment [13] was greater than 100 µM throughout. In experiment [14], this molecule showed a TGI greater than 100 µM.

Regarding `O=C(Nc1nc2ncn(CCO)c2c(=O)[nH]1)c1ccccc1`, the TGI in [1], in experiment [2], in experiment [15], in experiment [3], in experiment [4] and in experiment [5] was greater than 100 µM in each case. The TGI in experiment [6], in experiment [7], in [8], in [9], in experiment [10] and in [11] was greater than 100 µM each time. The TGI in experiment [12], in [13] and in experiment [14] was greater than 100 µM throughout.

`Cc1nnc(N/N=C(/C(=O)C(C#N)c2ccc(Cl)cc2)C(C#N)c2ccc(Cl)cc2)n1N` (stereo unspecified): the TGI in experiment [1] is 31.6 µM; in [2], 45.4 µM; in experiment [15], 61.9 µM; in experiment [3], 32.9 µM; in experiment [6] it was 30.1 µM; in [7], 43.1 µM. Further, the TGI was determined as 55.4 µM in experiment [8]; 39.3 µM in experiment [9]; 39.8 µM in [10]; 30.3 µM in experiment [11]; 33.8 µM in experiment [12]; 48.8 µM in [13]. This molecule also returned a TGI in [14] of 35.4 µM.

With `Cn1nc(-c2ccccc2)c(C(=O)/C=C/c2ccc(Cl)cc2)c(N2CCOCC2)c1=O`, the TGI was found to be 6.79 µM in experiment [1]; 9.41 µM in experiment [2]; 15.1 µM in experiment [15]; 12.8 µM in experiment [4]; 16.1 µM in [5]; 19.7 µM in [7]. For the same molecule, the TGI in experiment [8] is 4.38 µM; in experiment [9], 12.2 µM; in experiment [11], 33.7 µM; in [12], 7.64 µM; in experiment [14], 61.7 µM.

For `COC(=O)CCC(NC(=S)N/N=C(\C)c1cnccn1)C(=O)OC` (stereo unspecified), the TGI in experiment [1], in experiment [2], in experiment [15], in experiment [3], in experiment [4] and in [5] was greater than 100 µM each time. Besides, the TGI in experiment [6] is greater than 100 µM; in experiment [8], 38.6 µM; in [9] it was greater than 100 µM; in [10], greater than 100 µM; in experiment [11] it was greater than 100 µM; in experiment [12], greater than 100 µM. Moreover, the TGI in experiment [13] and in experiment [14] was greater than 100 µM each time.

Turning to `Nc1nc2c(ncn2CCCC(c2ccccc2)P(=O)(O)O)c(=O)[nH]1` (stereo unspecified), the TGI in experiment [2], in experiment [15], in experiment [4], in [5], in [6] and in experiment [7] was greater than 100 µM each time. The TGI in experiment [8], in experiment [9], in [10], in [11], in [12] and in [13] was greater than 100 µM each time. The same molecule displayed a TGI in experiment [14] greater than 100 µM.

For `CSC(=N)N1N=C2/C(=C/c3ccccc3)CCC[C@H]2[C@H]1c1ccccc1`, the TGI in [1] was 9.85 µM; in [2], 6.09 µM; in [15] it was 5.54 µM; in experiment [3], 11.8 µM; in experiment [4], 25.9 µM; in experiment [5], 9.18 µM. Besides, the TGI in experiment [8] is 4.29 µM; in experiment [9], 20.1 µM; in [10] it was 23.2 µM; in [11] it was 20.8 µM; in experiment [12] it was 12 µM; in [13], 23.8 µM. In experiment [14], this molecule yielded a TGI of 16.2 µM.
